Results published in ChEMBL document CHEMBL3885861, “Open TG-GATES”.

Organism: Rattus norvegicus
Assay: Open TG-GATES - Regimen: Single
Assay type: toxicity, organism-based, Sprague-Dawley
Design: regimen Single, gender Male, age 6 weeks
Settings: in vivo, po, 100 mg/kg, route gavage, dose level Low; for APTT / Bas / Eos / Fbg / Hb / Ht / Lym / MCH / MCHC / MCV / Mono / Neu / PT / Plat / RBC / Ret / WBC: tissue Blood; for KIDNEY_L / KIDNEY_R / KIDNEY_TOTAL: tissue Kidney; for LIVER: tissue Liver; for A/G / ALP / ALT / AST / BUN / CRE / Ca / Cl / DBIL / GLC / IP / K / LDH / Na / PL / RALB / TBIL / TC / TG / TP / gamma-GTP: tissue Plasma

Compound `O=C(OC[C@H]1O[C@@H](OC(=O)c2cc(O)c(O)c(OC(=O)c3cc(O)c(O)c(O)c3)c2)[C@H](OC(=O)c2cc(O)c(O)c(OC(=O)c3cc(O)c(O)c(O)c3)c2)[C@@H](OC(=O)c2cc(O)c(O)c(OC(=O)c3cc(O)c(O)c(O)c3)c2)[C@@H]1OC(=O)c1cc(O)c(O)c(OC(=O)c2cc(O)c(O)c(O)c2)c1)c1cc(O)c(O)c(OC(=O)c2cc(O)c(O)c(O)c2)c1` [TANNIC ACID] has a TERMINAL_BW (3 h) of 188.9 g, an APTT (3 h) of 16.1 s and a Bas (3 h) of 0%. For the same compound, the Eos (3 h) was 1.2%, the Fbg (3 h) was 212.2 mg/dL and the Hb (3 h) was 13 g/dL. For the same compound, the Ht (3 h) was 38.5%, the Lym (3 h) was 82% and the MCH (3 h) was 22.2 pg. It also gave an MCHC (3 h) of 33.8%, an MCV (3 h) of 65.6 fL and a Mono (3 h) of 5.8%. For the same compound, the Neu (3 h) was 11.2%, the PT (3 h) was 11.5 s and the Plat (3 h) was 112.2 x10_4/uL. For the same compound, the RBC (3 h) was 587 x10_4/ul, the Ret (3 h) was 10.1% and the WBC (3 h) was 96.7 x10_2/uL. The KIDNEY_L (3 h) was 0.9 g, the KIDNEY_R (3 h) was 0.9 g and the KIDNEY_TOTAL (3 h) was 1.7 g. The LIVER (3 h) was 8.6 g, the A/G (3 h) was 2 and the ALP (3 h) was 882 IU/L. It also gave an ALT (3 h) of 37.8 IU/L, an AST (3 h) of 70.2 IU/L and a BUN (3 h) of 15.8 mg/dL. For the same compound, the CRE (3 h) was 0.5 mg/dL, the Ca (3 h) was 10.9 mg/dL and the Cl (3 h) was 105 meq/L. It also gave a DBIL (3 h) of 0.018 mg/dL, a GLC (3 h) of 198 mg/dL and an IP (3 h) of 10.2 mg/dL. The K (3 h) was 4.9 meq/L, the LDH (3 h) was 75 IU/L and the Na (3 h) was 139.2 meq/L. For the same compound, the PL (3 h) was 128.8 mg/dL, the RALB (3 h) was 3.5 g/dL and the TBIL (3 h) was 0.5 mg/dL. It also gave a TC (3 h) of 68.6 mg/dL, a TG (3 h) of 47.6 mg/dL and a TP (3 h) of 5.3 g/dL. It also gave a gamma-GTP (3 h) of 2.2 IU/L, a TERMINAL_BW (6 h) of 185 g and an APTT (6 h) of 17.1 s. The Bas (6 h) was 0%, the Eos (6 h) was 1% and the Fbg (6 h) was 212.6 mg/dL. It also gave a Hb (6 h) of 12.7 g/dL, a Ht (6 h) of 37.9% and a Lym (6 h) of 78.4%. It also gave an MCH (6 h) of 22.6 pg, an MCHC (6 h) of 33.5% and an MCV (6 h) of 67.3 fL. It also gave a Mono (6 h) of 6.4%, a Neu (6 h) of 14.6% and a PT (6 h) of 12 s. It also gave a Plat (6 h) of 109.6 x10_4/uL, an RBC (6 h) of 564 x10_4/ul and a Ret (6 h) of 10.4%. For the same compound, the WBC (6 h) was 85.8 x10_2/uL, the KIDNEY_L (6 h) was 0.9 g and the KIDNEY_R (6 h) was 0.9 g. For the same compound, the KIDNEY_TOTAL (6 h) was 1.8 g, the LIVER (6 h) was 8.5 g and the A/G (6 h) was 2. It also gave an ALP (6 h) of 684.8 IU/L, an ALT (6 h) of 38.6 IU/L and an AST (6 h) of 70.4 IU/L. For the same compound, the BUN (6 h) was 12.6 mg/dL, the CRE (6 h) was 0.5 mg/dL and the Ca (6 h) was 10.8 mg/dL. The Cl (6 h) was 105 meq/L, the DBIL (6 h) was 0.032 mg/dL and the GLC (6 h) was 188.2 mg/dL. It also gave an IP (6 h) of 10.4 mg/dL, a K (6 h) of 4.5 meq/L and an LDH (6 h) of 102.8 IU/L. The Na (6 h) was 140.6 meq/L, the PL (6 h) was 140.2 mg/dL and the RALB (6 h) was 3.5 g/dL. It also gave a TBIL (6 h) of 0.5 mg/dL, a TC (6 h) of 86 mg/dL and a TG (6 h) of 41.4 mg/dL. The TP (6 h) was 5.3 g/dL, the gamma-GTP (6 h) was 1.2 IU/L and the TERMINAL_BW (9 h) was 180.9 g. It also gave an APTT (9 h) of 16.4 s, a Bas (9 h) of 0% and an Eos (9 h) of 1%. For the same compound, the Fbg (9 h) was 217.4 mg/dL, the Hb (9 h) was 13.2 g/dL and the Ht (9 h) was 39.3%. The Lym (9 h) was 80.4%, the MCH (9 h) was 22.3 pg and the MCHC (9 h) was 33.6%. For the same compound, the MCV (9 h) was 66.5 fL, the Mono (9 h) was 6.8% and the Neu (9 h) was 12%. It also gave a PT (9 h) of 12 s, a Plat (9 h) of 112.9 x10_4/uL and an RBC (9 h) of 591.6 x10_4/ul. It also gave a Ret (9 h) of 10.1%, a WBC (9 h) of 105.1 x10_2/uL and a KIDNEY_L (9 h) of 0.8 g. It also gave a KIDNEY_R (9 h) of 0.8 g, a KIDNEY_TOTAL (9 h) of 1.6 g and an LIVER (9 h) of 7.2 g. It also gave an A/G (9 h) of 2, an ALP (9 h) of 837.8 IU/L and an ALT (9 h) of 35.2 IU/L. For the same compound, the AST (9 h) was 64.2 IU/L, the BUN (9 h) was 12.6 mg/dL and the CRE (9 h) was 0.4 mg/dL. For the same compound, the Ca (9 h) was 10.3 mg/dL, the Cl (9 h) was 106.4 meq/L and the DBIL (9 h) was 0.072 mg/dL. For the same compound, the GLC (9 h) was 190.2 mg/dL, the IP (9 h) was 10.2 mg/dL and the K (9 h) was 4.9 meq/L. It also gave an LDH (9 h) of 101.4 IU/L, a Na (9 h) of 137.6 meq/L and a PL (9 h) of 135.2 mg/dL. The RALB (9 h) was 3.6 g/dL, the TBIL (9 h) was 0.5 mg/dL and the TC (9 h) was 78.8 mg/dL. The TG (9 h) was 24.6 mg/dL, the TP (9 h) was 5.4 g/dL and the gamma-GTP (9 h) was 1.6 IU/L. For the same compound, the TERMINAL_BW (24 h) was 201.1 g, the APTT (24 h) was 16.7 s and the Bas (24 h) was 0%. It also gave an Eos (24 h) of 1%, a Fbg (24 h) of 227.8 mg/dL and a Hb (24 h) of 12.8 g/dL. It also gave a Ht (24 h) of 38.4%, a Lym (24 h) of 78.8% and an MCH (24 h) of 21.9 pg. It also gave an MCHC (24 h) of 33.4%, an MCV (24 h) of 65.6 fL and a Mono (24 h) of 5.4%. It also gave a Neu (24 h) of 14.8%, a PT (24 h) of 11.7 s and a Plat (24 h) of 114.5 x10_4/uL. For the same compound, the RBC (24 h) was 585.2 x10_4/ul, the Ret (24 h) was 10.1% and the WBC (24 h) was 96.6 x10_2/uL. It also gave a KIDNEY_L (24 h) of 0.9 g, a KIDNEY_R (24 h) of 0.9 g and a KIDNEY_TOTAL (24 h) of 1.8 g. For the same compound, the LIVER (24 h) was 9.7 g, the A/G (24 h) was 2 and the ALP (24 h) was 823.4 IU/L. It also gave an ALT (24 h) of 41.2 IU/L, an AST (24 h) of 63 IU/L and a BUN (24 h) of 17.8 mg/dL. For the same compound, the CRE (24 h) was 0.5 mg/dL, the Ca (24 h) was 10.8 mg/dL and the Cl (24 h) was 103.8 meq/L. It also gave a DBIL (24 h) of 0.008 mg/dL, a GLC (24 h) of 190.6 mg/dL and an IP (24 h) of 8.7 mg/dL. The K (24 h) was 4.5 meq/L, the LDH (24 h) was 98.2 IU/L and the Na (24 h) was 138 meq/L. For the same compound, the PL (24 h) was 147.2 mg/dL, the RALB (24 h) was 3.6 g/dL and the TBIL (24 h) was 0.3 mg/dL. The TC (24 h) was 81.4 mg/dL, the TG (24 h) was 101.6 mg/dL and the TP (24 h) was 5.5 g/dL. For the same compound, the gamma-GTP (24 h) was 1 IU/L.
